These results are taken from US20200261421A1, “HETEROCYCLIC COMPOUNDS AS HIV PROTEASE INHIBITORS” (Merck Sharp & Dohme Corp., priority 2016, published 2020).

For this test, the target named is T1, wild-type HIV-1 protease (Human immunodeficiency virus type 1 group M subtype B, UniProt P04585).
T1 construct: Escherichia coli expressed wild-type HIV-1 protease protein; made in house; host or cells: Escherichia coli
Description: Assay for Inhibition of Microbial Expressed HIV Protease. Particulars: Escherichia coli expressed wild-type HIV-1 protease, peptide substrate cleavage; mean of at least two independent experiments. The class given is biochemical. How it is done:
Inhibition of Escherichia coli expressed wild-type HIV-1 protease protein was carried out with a peptide substrate [Val-Ser-Gln-Asn-Wnaphtyl)Ala-Pro-Ile-Val]. The inhibitor compound was preincubated with HIV-1 protease enzyme in assay buffer (50 mM sodium acetate, pH 5.5, 100 mM NaCl, and 0.1% BSA) for 30 minutes at room temperature. Peptide substrate was added to 400 μM in a total volume of 20 μL containing 20 pM HIV-1 protease (final) after which the reaction was incubated for 1 hour at 30° C. The reaction was quenched by the addition of formic acid and HIV protease inhibitor indinavir to 0.012% and 150 nM final concentrations, respectively. Product formation was determined after separation of product and substrate on a ZORBAX Eclipse XDB-C18 column (Aligent Technologies, Santa Clara, Calif., USA) connected to an API 4000™ mass spectrometer (AB Sciex, Pte. Ltd., Concord Ontario, Canada) with multiple reaction monitoring (transitions were 644.5/428.9 and 615.4/422.2 (M1/M3) for product and indinavir respectively). The extent of inhibition of the reaction was determined from the peak area of the products. Analysis of the products, independently synthesized, provided quantitation standards and confirmation of the product composition. […] Ic50's refer to the 50% inhibition of the cleavage of a peptide substrate by hiv protease.
Data shown in the table reflects the mean of at least two independent experiments.

pIC50: −log10 of the molar value.

A word on the pIC50: it is the IC50 on a negative log10 scale, so that one unit is a factor of ten. Read a high pIC50 as a small IC50. For the molecule `CC(C)CC1(c2ccccc2)NC(=N)N(Cc2ccc(C(F)(F)F)c(C(=O)NCc3ccc(C#N)cc3)c2)C1=O` (stereo not drawn) [Example 1, N-(4-cyanobenzyl)-5-{[2-imino-4-(2-methylpropyl)-5-oxo-4-phenylimidazolidin-1-yl]methyl}-2-(trifluoromethyl)benzamide], the pIC50 is 7.80. Next, `CN(Cc1ccc(C#N)cc1)C(=O)c1cc(CN2C(=N)NC(c3ccccc3)(c3ccccc3)C2=O)ccc1C(F)(F)F` [Example 2, N-(4-cyanobenzyl)-5-[(2-imino-5-oxo-4,4-diphenylimidazolidin-1-yl)methyl]-N-methyl-2-(trifluoromethyl)benzamide]: 7.74; `CN(Cc1ccccc1S(C)(=O)=O)C(=O)c1cc(CN2C(=N)NC(c3ccccc3)(c3ccccc3)C2=O)ccc1C(F)(F)F` [Example 3, 5-[(2-imino-5-oxo-4,4-diphenylimidazolidin-1-yl)methyl]-N-methyl-N-[2-(methylsulfonyl)benzyl]-2-(trifluoromethyl)benzamide]: 7.65.

Molecule `N=C1NC(c2ccc(F)cc2)(c2ccc(F)cc2)C(=O)N1Cc1ccc(C(F)(F)F)c(C(=O)NCc2cnccn2)c1` [Example 4, 5-{[4,4-bis(4-fluorophenyl)-2-imino-5-oxoimidazolidin-1-yl]methyl}-N-(pyrazin-2-ylmethyl)-2-(trifluoromethyl)benzamide] showed a negative-log IC50 (pIC50) of 7.51. The pIC50 values of the last two molecules are within 0.2 log units of each other. Next, `N#Cc1ccc(CNC(=O)c2cc(CN3C(=N)NC(c4ccc(F)cc4)(c4ccc(F)cc4)C3=O)ccc2C(F)(F)F)cc1` [Example 5, 5-{[4,4-bis(4-fluorophenyl)-2-imino-5-oxoimidazolidin-1-yl]methyl}-N-(4-cyanobenzyl)-2-(trifluoromethyl)benzamide]: 7.37; `CC(C)CC1(c2ccccc2)NC(=N)N(Cc2ccc(C(F)(F)F)c(C(=O)NCc3cnccn3)c2)C1=O` (stereo not drawn) [Example 6, 5-{[2-imino-4-(2-methylpropyl)-5-oxo-4-phenylimidazolidin-1-yl]methyl}-N-(pyrazin-2-ylmethyl)-2-(trifluoromethyl)benzamide]: 7.33; `N=C1NC(c2ccccc2)(c2ccccc2)C(=O)N1Cc1ccc(C(F)(F)F)c(C(=O)NCc2ccccc2OC(F)F)c1` [Example 7, N-[2-(difluoromethoxy)benzyl]-5-[(2-imino-5-oxo-4,4-diphenylimidazolidin-1-yl)methyl]-2-(trifluoromethyl)benzamide]: 7.28. In the case of `CC(C)CCC1(c2ccccc2)NC(=N)N(Cc2ccc(C(F)(F)F)c(C(=O)NCc3ncccn3)c2)C1=O` (stereo not drawn) [Example 8, 5-{[2-imino-4-(3-methylbutyl)-5-oxo-4-phenylimidazolidin-1-yl]methyl}-N-(pyrimidin-2-ylmethyl)-2-(trifluoromethyl)benzamide], the pIC50 was 7.26. As to `N=C1NC(c2ccccc2)(c2ccccc2)C(=O)N1Cc1ccc(C(F)(F)F)c(C(=O)NCc2cccc(OC(F)F)c2)c1` [Example 9, N-[3-(difluoromethoxy)benzyl]-5-[(2-imino-5-oxo-4,4-diphenylimidazolidin-1-yl)methyl]-2-(trifluoromethyl)benzamide], the pIC50 is 7.16. Next, `CC(C)CCC1(c2ccccc2)NC(=N)N(Cc2ccc(C(F)(F)F)c(C(=O)NCC(F)F)c2)C1=O` (stereo not drawn) [Example 10, N-(2,2-difluoroethyl)-5-{[2-imino-4-(3-methylbutyl)-5-oxo-4-phenylimidazolidin-1-yl]methyl}-2-(trifluoromethyl)benzamide]: 7.04; `CC(C)CC1(c2ccccc2)NC(=N)N(Cc2ccc(C(F)(F)F)c(C(=O)NCc3ncccn3)c2)C1=O` (stereo not drawn) [Example 11, 5-{[2-imino-4-(2-methylpropyl)-5-oxo-4-phenylimidazolidin-1-yl]methyl}-N-(pyrimidin-2-ylmethyl)-2-(trifluoromethyl)-benzamide]: 7.04; `N=C1NC(c2ccccc2)(c2ccccc2)C(=O)N1Cc1ccc(C(F)(F)F)c(C(=O)NCc2ccc(OC(F)F)cc2)c1` [Example 12, N-[4-(difluoromethoxy)benzyl]-5-[(2-imino-5-oxo-4,4-diphenylimidazolidin-1-yl)methyl]-2-(trifluoromethyl)benzamide]: 7.03. Next, `CN(Cc1ccc(C#N)cc1)C(=O)c1cccc(CN2C(=N)NC(c3ccc(F)cc3)(c3ccc(F)cc3)C2=O)c1` [Example 13, 3-{[4,4-bis(4-fluorophenyl)-2-imino-5-oxoimidazolidin-1-yl]methyl}-N-(4-cyanobenzyl)-N-methylbenzamide]: 8.17. `CC(C)CCC1(c2ccccc2)NC(=N)N(Cc2cccc(C(=O)N(C)Cc3ccc(C#N)cc3)c2)C1=O` (stereo not drawn) [Example 14, N-(4-cyanobenzyl)-3-{[2-imino-4-(3-methylbutyl)-5-oxo-4-phenylimidazolidin-1-yl]methyl}-N-methylbenzamide]: the pIC50 is 8.13. This pIC50 and that of the molecule before are within 0.2 log units of each other. Next, `CC(C)CC[C@]1(c2ccccc2)NC(=N)N([C@H](C)c2cccc(C(=O)N(C)Cc3ccc(F)cc3)c2)C1=O` [Example 15, N-(4-fluorobenzyl)-3-{(1R)-1-[2-imino-4-(3-methylbutyl)-5-oxo-4-phenylimidazolidin-1-yl]ethyl}-N-methylbenzamide]: 8.04. Next, `CC(C)CC1(c2ccc(F)cc2)NC(=N)N(Cc2cccc(C(=O)N(C)Cc3ccc(Cl)cc3)c2)C1=O` (stereo not drawn) [Example 16, N-(4-chlorobenzyl)-3-{[4-(4-fluorophenyl)-2-imino-4-(2-methylpropyl)-5-oxoimidazolidin-1-yl]methyl}-N-methylbenzamide]: 8.04. Consider `CC(C)CCC1(c2ccccc2)NC(=N)N(Cc2cccc(C(=O)N(C)Cc3ccc(F)cc3)c2)C1=O` (stereo not drawn) [Example 17, N-(4-fluorobenzyl)-3-{[2-imino-4-(3-methylbutyl)-5-oxo-4-phenylimidazolidin-1-yl]methyl}-N-methylbenzamide], for which the negative logarithm of the IC50 (pIC50) was 7.99.

The molecule `CN(Cc1ccc(Cl)nc1)C(=O)c1cccc(CN2C(=N)NC(c3ccc(F)cc3)(c3ccc(F)cc3)C2=O)c1` [Example 18, 3-{[4,4-bis(4-fluorophenyl)-2-imino-5-oxoimidazolidin-1-yl]methyl}-N-[(6-chloropyridin-3-yl)methyl]-N-methylbenzamide] showed a pIC50 of 7.99.

`CN(Cc1ccc(Cl)cc1)C(=O)c1cccc(CN2C(=N)NC(c3ccc(F)cc3)(c3cccc(C(N)=O)c3)C2=O)c1` (stereo not drawn) [Example 19, 3-{[4-(3-carbamoylphenyl)-4-(4-fluorophenyl)-2-imino-5-oxoimidazolidin-1-yl]methyl}-N-(4-chlorobenzyl)-N-methylbenzamide] gave a pIC50 of 7.94. This pIC50 and that of the molecule before are within 0.2 log units of each other. Molecule `C[C@H](c1ccc(F)cc1)N(C)C(=O)c1cccc(CN2C(=N)NC(c3ccccc3)(c3ccccc3)C2=O)c1` [Example 20, N-[(1R)-1-(4-fluorophenyl)ethyl]-3-[(2-imino-5-oxo-4,4-diphenylimidazolidin-1-yl)methyl]-N-methylbenzamide] gave a pIC50 of 7.93. The pIC50 values of the last two molecules are within 0.2 log units of each other. In the case of `CN(Cc1ccc(Cl)cn1)C(=O)c1cccc(CN2C(=N)NC(c3ccc(F)cc3)(c3ccc(F)cc3)C2=O)c1` [Example 21, 3-{[4,4-bis(4-fluorophenyl)-2-imino-5-oxoimidazolidin-1-yl]methyl}-N-[(5-chloropyridin-2-yl)methyl]-N-methylbenzamide] it was 7.90.
